Assay results from PMC11547375, “Peptide Dimerization as a Strategy for the Development of Antileishmanial Compounds” (Molecules, 2024).
Like-named read-outs stand apart in the source and are kept apart here. Positions of bridges follow the written chain, without caps; N, C: chain ends. Residues, ends and D or L forms follow the SMILES beside them. Chains are numbered I, II in the order given. No end group written: not given here.

Columns and labels:
[1] = target: LmCPB2.8ΔCTE (CPB) (Leishmania mexicana, UniProt P36400); conditions: cited from earlier work
Source text: (§1) In addition to the membrane, peptides may have other therapeutic targets in Leishmania. Enzymes are essential for functional integrity and virulence, highlighting the fundamental role of cysteine proteases in the infectious process, so their inhibition can have high therapeutic potential, enabling the design of new drugs. In L. mexicana, three cysteine protease genes were identified as virulence factors: lmcpa, lmcpb, and lmcpc. Of these, lmcpb encodes a protein product like cathepsin L and is the most abundant in the amastigote form of the parasite, so this enzyme is an i ...

[2] = system: L. mexicana promastigotes; assay: Membrane damage by flow cytometry with propidium iodide; type: cell-based, Leishmania mexicana; conditions: 1 × IC50; promastigotes 5 × 10^6 cells mL^−1, PI 80 µg mL^−1 20 min; given in Figure 11
Method: The mechanism of action of the peptides on the membrane was also evaluated by flow cytometry using propidium iodide. Flow cytometry has been considered more reliable for studies of cell susceptibility because it provides intrinsic information about cells, such as size and complexity. The use of fluorochromes allows for the evaluation of a wide range of physiological or morphological parameters, such as membrane integrity, pH, membrane potential, and viability. The results presented here (Figure 11) are expressed as the fluorescence intensity of the PI-labeled L. mexicana cells, considering that the damage caused to the parasite membrane facilitated the entry of PI into the cell nucleus.
For flow cytometry assays, the promastigotes of L. mexicana were grown in Schneider medium (Sigma) supplemented with inactivated fetal bovine serum. […] After incubation, the promastigotes were washed twice with PBS and labeled with propidium iodide (PI) (80 μg mL^−1) for 20 min, followed by centrifugation at 2000× g for 10 min and resuspension in 500 μL of PBS. The samples were analyzed using an Accuri C6 flow cytometer (BD Biosciences, Franklin Lakes, NJ, USA) and proprietary software, with at least 50,000 events effectively included in each analysis. All the experiments were performed using biological duplicates in triplicate at each experimental point.

[3] = POPC–POPS–Erg (16:3:1) LUVs
Method: To evaluate the effect of monomeric and dimeric peptides on the lipid membrane and relate it to the mechanism of action, vesicle permeabilization studies were carried out for evaluating the possible mechanisms on membrane. The leakage assays were carried out with carboxyfluorescein (CF) internalized in the mimetic membranes. The vesicles of POPC–Chol (4:1) and POPC–POPS (phosphatidylserine)–ergosterol (16:3:1) were employed. These mimetic membranes were designed considering the compositions of phospholipids and steroids in the host membrane and in the Leishmania membrane, respectively. The constitution of the cell membrane of Leishmania varies according to the morphology of the parasite and its stage of development, but is more negative than the cell membranes of mammals, which allow for cationic AMPs to bind more easily. Our studies were based on the membrane of the promastigote form, which is characterized by the presence of mainly phosphatidylcholine, phosphatidylethanolamine, phosphatidylinositol, phosphatidylserine, and ergosterol, in addition to diglycerides and glycolipids containing mannose and galactose. In the amastigote form of Leishmania, there is a higher concentration of fatty acids and cholesterol, while triglycerides and ergosterol decrease during the transition from promastigotes to amastigotes. In addition, the main phospholipids found are sphingomyelin and phosphatidylserine, with lower proportions of phosphatidylinositol and lysophosphatidylethanolamine.
Large unilamellar vesicles (LUVs) composed of POPC (1-palmitoyl-2-oleoyl-sn-glycero-3-phosphatidylcholine) and cholesterol (Chol) (4:1), or POPC, POPS (1-palmitoyl-2-oleoyl-sn-glycero-3-serine), and ergosterol (Erg) (16:3:1) were prepared according to the methods described by Lorenzón et al.. […] We employed a Hitachi U-2000 spectrophotometer (TSHa) (Hitachi, Tokyo, Japan) or a Fluorolog-3 FL3-122 spectrofluorometer (Horiba Jobin Yvon, Glasgow, UK) ((TSHa)2K) for analyses.

[4] = system: L. amazonensis intracellular amastigotes; assay: Infection index, L. amazonensis intracellular amastigotes in macrophages; type: cell-based, Leishmania amazonensis; conditions: 24 h of treatment
[5] = Carboxyfluorescein leakage from POPC-Chol (4:1) vesicles mimicking host membrane; conditions: POPC–Chol (4:1) LUVs, peptide tested at 1 and 5 µmol L^−1
Method: Large unilamellar vesicles (LUVs) composed of POPC (1-palmitoyl-2-oleoyl-sn-glycero-3-phosphatidylcholine) and cholesterol (Chol) (4:1), or POPC, POPS (1-palmitoyl-2-oleoyl-sn-glycero-3-serine), and ergosterol (Erg) (16:3:1) were prepared according to the methods described by Lorenzón et al. [34]. […] We employed a Hitachi U-2000 spectrophotometer (TSHa) (Hitachi, Tokyo, Japan) or a Fluorolog-3 FL3-122 spectrofluorometer (Horiba Jobin Yvon, Glasgow, UK) ((TSHa)2K) for analyses.

[6] = system: L. mexicana intracellular amastigotes; assay: Infection index, L. mexicana intracellular amastigotes in macrophages; type: cell-based, Leishmania mexicana; conditions: 24 h of treatment
Method: During the infection process, the amastigotes replicated in macrophages are transmitted to healthy cells, leading to the amplification of infection; the greater the parasitic load is, the worse the infection is. The infection index (percentage of infected cells x number of parasites per infected cell) was used to evaluate this transmission. In this work, the infection index was determined using L. mexicana for 24 h (Figure 6) and 48 h of treatment (Figure 7).
The L. amazonensis promastigotes (MPRO/BR/1972/M1841-LV-79) were grown in LIT culture medium, while the L. mexicana promastigotes (MNYC/BZ/62/M379) were cultivated in Schneider’s medium (Sigma-Aldrich, St. Louis, MO, USA), supplemented with 10% heat-inactivated fetal bovine serum (FBS; Gibco/Invitrogen, Waltham, MA, USA) at 28 °C until reaching the mid-log phase of growth. Macrophages were sourced from the peritoneal cavity of Swiss mice using the methodology outlined by de Almeida et al.. Anti-promastigote and anti-amastigote assays of L. mexicana and L. amazonensis and their cytotoxic activity were conducted as previously described. IC50 is the concentration capable of killing 50% of the parasites. […] Cytotoxicity for the host cells and the protozoan species was compared and expressed as the selectivity index (SI), calculated as the ratio of the CC50 for macrophages to the IC50 for the protozoan species.

[7] = system: L. mexicana promastigotes; assay: Membrane damage by fluorescence microscopy (PI/Hoechst); type: cell-based, Leishmania mexicana; conditions: 1.25 and 2.5 µmol L^−1, 24 h; ratio PI-labeled / Hoechst-labeled parasites
Method: Fluorescence microscopy assays were also employed to investigate the mechanism of action of the peptides. […] In addition, the ratio of PI-labeled cells to Hoechst-labeled cells was used to determine the percentage of cells that had suffered some type of membrane damage. Images were also obtained after the treatments of the promastigote form with the TSHa peptide, the dimeric (TSHa)2K peptide, and the Amp B control drug at concentrations of 2.5 and 1.25 µmol L^−1 after 2 and 24 h to evaluate the mechanism of action of these molecules and whether the time of exposure to the compounds might affect their activity. […] The results for the other treatments are provided in the Supplementary Materials (Figures S1–S10).
For fluorescence microscopy, assays were carried out with promastigotes of L. mexicana in the exponential phase of growth in passage P3 at a concentration of 1 × 10^7 cells mL^−1. Treatments were performed with Amp B and the peptides at concentrations of 1.25 or 2.5 μmol L^−1 for 2 or 24 h, respectively. The parasites were labeled with 5 μg mL^−1 of Hoechst solution (stock: 1 mg mL^−1) for 5 min, followed by the addition of PI (1 mg mL^−1) to a final concentration of 40 μg mL^−1 and incubation for 20 min at room temperature. […] Images were acquired with a fluorescence microscope (Nikon DS-R11,10 Nikon Instruments Inc., Melville, NY, USA) at 40× magnification. […]

[8] = system: L. amazonensis promastigotes; assay: microbe, parasite or virus in culture; type: cell-based, Leishmania amazonensis; conditions: Leishmania amazonensis, read-out: IC50 Promastigote
Method: (§2) The L. amazonensis promastigotes (MPRO/BR/1972/M1841-LV-79) were grown in LIT culture medium, while the L. mexicana promastigotes (MNYC/BZ/62/M379) were cultivated in Schneider’s medium (Sigma-Aldrich, St. Louis, MO, USA), supplemented with 10% heat-inactivated fetal bovine serum (FBS; Gibco/Invitrogen, Waltham, MA, USA) at 28 °C until reaching the mid-log phase of growth. Macrophages were sourced from the peritoneal cavity of Swiss mice using the methodology outlined by de Almeida et al.. Anti-promastigote and anti-amastigote assays of L. mexicana and L. amazonensis and their cytotoxic activity were conducted as previously described. IC50 is the concentration capable of killing 50% of the parasites. The drug concentration that inhibited 50% of cell growth was denoted as the 50% cytotoxic concentration (CC50). Cytotoxicity for the host cells and the protozoan species was compared and expressed as the selectivity index (SI), calculated as the ratio of the CC50 for macrophages to the IC50 for the protozoan species.

[9] = system: L. amazonensis amastigotes; assay: microbe, parasite or virus in culture; type: cell-based, Leishmania amazonensis; conditions: Leishmania amazonensis, read-out: IC50 Amastigote
Method: (§3) Macrophages were sourced from the peritoneal cavity of Swiss mice using the methodology outlined by de Almeida et al.. Anti-promastigote and anti-amastigote assays of L. mexicana and L. amazonensis and their cytotoxic activity were conducted as previously described. […] Cytotoxicity for the host cells and the protozoan species was compared and expressed as the selectivity index (SI), calculated as the ratio of the CC50 for macrophages to the IC50 for the protozoan species.

[10] = system: L. mexicana amastigotes; assay: microbe, parasite or virus in culture; type: cell-based, Leishmania mexicana; conditions: Leishmania mexicana, ± standard deviation, SD
Method: as §3

[11] = system: L. mexicana promastigotes; assay: microbe, parasite or virus in culture; type: cell-based, Leishmania mexicana; conditions: Leishmania mexicana, ± standard deviation, SD, read-out: IC50 Promastigote
Method: as §2

[12] = system: peritoneal macrophages; assay: Cytotoxicity in peritoneal macrophages; type: cell-based; conditions: peritoneal macrophages of Swiss mice
Method: as §2

[13] = target: cathepsin B; conditions: cited from earlier work
Source text: as §1

[14] = target: LmCPB2.8ΔCTE (CPB), cysteine protease of Leishmania mexicana (L. mexicana) (UniProt P36400)

## CC(C)C[C@H](NC(=O)[C@H]1O[C@@H]1C(=O)O)C(=O)NCCCCN=C(N)N (relative stereo) [Peptide E64, L-trans-epoxysuccinyl-leucylamido-(4-guanidino)butane]
[1]
  inhibition of Leishmania CPB, in words: in the nanomolar range is a potent irreversible inhibitor

## CC[C@H](C)[C@H](NC(=O)CNC(=O)[C@H](CO)NC(=O)[C@H](CC(C)C)NC(=O)[C@@H](N)Cc1ccccc1)C(=O)N[C@H](C(=O)NCC(=O)N[C@@H](CCSC)C(=O)N[C@@H](CC(C)C)C(=O)NCC(=O)N[C@@H](CCCCN)C(=O)N[C@@H](CC(C)C)C(=O)N[C@@H](Cc1ccccc1)C(=O)NCCCC[C@H](NC(=O)[C@H](Cc1ccccc1)NC(=O)[C@H](CC(C)C)NC(=O)[C@H](CCCCN)NC(=O)CNC(=O)[C@H](CC(C)C)NC(=O)[C@H](CCSC)NC(=O)CNC(=O)[C@@H](NC(=O)[C@@H](NC(=O)CNC(=O)[C@H](CO)NC(=O)[C@H](CC(C)C)NC(=O)[C@@H](N)Cc1ccccc1)[C@@H](C)CC)C(C)C)C(N)=O)C(C)C [(TSHa)2K] (I: H-FLSGIVGMLGKLFK-NH2 / II: H-FLSGIVGMLGKLF; amide I:14-II:C; N-terminus assumed)
[2]
  V1-L gate (cells not labeled with PI): 52.8%
  V1-R gate (PI-labeled cells): 47.2%
[3]; peptide 1 µmol L^−1, fluorescence
  CF release: 20%
[3]; peptide 5 µmol L^−1, fluorescence
  CF release: 45%
[4]
  decrease of infection rate (infection index) vs untreated infected cells: 3.8 fold
[5]
  permeabilization of POPC–Chol vesicles, in words: No permeabilization
[6]
  decrease of infection rate (infection index) vs untreated infected cells: 5.5 fold
[7]
  membrane damage, in words: caused damage to the membrane

## C[C@@H]1[C@H](O)[C@@H](C)/C=C/C=C/C=C/C=C/C=C/C=C/C=C/[C@H](O[C@@H]2O[C@H](C)[C@@H](O)[C@H](N)[C@@H]2O)C[C@@H]2O[C@](O)(C[C@@H](O)C[C@@H](O)[C@H](O)CC[C@@H](O)C[C@@H](O)CC(=O)O[C@H]1C)C[C@H](O)[C@H]2C(=O)O [Amp B, Amphotericin B]
[8]
  IC50: 700 ± 200 nM
[2]
  V1-L gate (cells not labeled with PI): 55.2%
  V1-R gate (PI-labeled cells): 44.8%
[9]
  IC50: 630 ± 20 nM
[10]; 24 h of treatment, read-out: IC50 Amastigote 24 h of Treatment
  IC50: 630 ± 1200 nM
[10]; 48 h of treatment, read-out: IC50 Amastigote 48 h of Treatment
  IC50: 630 ± 1200 nM
[11]
  IC50: 500 ± 200 nM
[7]
  membrane damage, in words: caused damage to the membrane
[12]; Table 1, ± standard deviation, SD
  CC50 Peritoneal Macrophages: 24 ± 0.02 µmol/L
[12]; Table 2
  CC50 Peritoneal Macrophage: 24 ± 0.4 µmol/L

## Cc1ccc(C(=O)[C@@]23C(=O)OC(=O)C2N(C)[C@]2(c4ccccc4)Sc4ccccc4[C@H]32)cc1 (stereo partly drawn) [derivative of benzo[b]thiophene, (4aS,9bS,9cS)-4-methyl-9c-(4-methylbenzoyl)-4a-phenyl-4,4a,9b,9c-tetrahydro-1H-benzo[4,5]thieno[2,3-b]furo[3,4-d]pyrrole-1,3(3aH)-dione]
[1]; read-out: IC50-CEC, LmCPB2.8△CTE (CEC)
  IC50: 3.7 µM

## Z-Arg-Leu-Val-Gly-Ile-Val-O-methyl
[13]
  Ki: 0.088 nM

## dimeric peptide (TSHa)2K
[14]
  IC50 of inhibition of the enzyme activity of CPB (LmCPB2.8ΔCTE): 3.6 µmol/L
  Inhibitory Activity at 20 μmol L^−1 (%): inhibition of the enzyme activity of CPB (LmCPB2.8ΔCTE) by the peptide: 98%

B1: temporin peptide TSHa (peptide)
peptide: FLSGIVGMLGKLF-NH2
[14]
  IC50 of inhibition of the enzyme activity of CPB (LmCPB2.8ΔCTE): 9.2 µmol/L
  Inhibitory Activity at 20 μmol L^−1 (%): inhibition of the enzyme activity of CPB (LmCPB2.8ΔCTE) by the peptide: 94.2%
